Tested on: 64 cancer cell lines
Test: Anti-proliferative activity across a panel of 64 cancer cell lines (CellTiter-Glo)
Format: cell-based
Experimental: Prior to testing, cells were grown and expanded in culture flasks to provide sufficient amounts of starting material. Cells were then diluted to the appropriate densities and added directly to the compound-spotted 384-well plates. Cells were allowed to grow for 72 h at 37° C./5% CO2. At the time when compound was added (to), initial cell number was assessed via a viability assay (Cell Titer-Glo) by quantifying the level of luminescence generated by ATP present in viable cells. After 72 h, cell viability of compound-treated cells was assessed via Cell Titer-Glo and luminescence measurement. The apoptotic response to Compound 1 was assessed by quantifying the activities of caspase 3 and caspase 7 (Caspase 3/7-Glo) in treated cells and DMSO control cells.
Cells were treated with DMSO or increasing concentrations of Compound 1 for 72 h. Proliferation was measured using CellTiter-Glo as described.

[1] = Homo sapiens, Malme-3M, 72 h, MALME-3M (Melanoma)
[2] = Homo sapiens, NCI-H23, 72 h, NCI-H23 (Lung)
[3] = Homo sapiens, NCI-H28, 72 h, NCI-H28 (Lung)
[4] = Homo sapiens, NCI-H226, 72 h, NCI-H226 (Lung)
[5] = Homo sapiens, NCI-H441, 72 h, NCI-H441 (Lung)
[6] = Homo sapiens, NCI-H460, 72 h, NCI-H460 (Lung)
[7] = Homo sapiens, NCI-H520, 72 h, NCI-H520 (Lung)
[8] = Homo sapiens, NCI-H838, 72 h, NCI-H838 (Lung)
[9] = Homo sapiens, NCI-H1299, 72 h, NCI-H1299 (Lung)
[10] = Homo sapiens, NCI-H1703, 72 h, NCI-H1703 (Lung)
[11] = Homo sapiens, NCI-H1755, 72 h, NCI-H1755 (Lung)
[12] = Homo sapiens, NCI-H1975, 72 h, NCI-H1975 (Lung)
[13] = Homo sapiens, NCI-H2122, 72 h, NCI-H2122 (Lung)
[14] = Homo sapiens, PANC-1, 72 h, PANC-1 (Pancreas)
[15] = Homo sapiens, PLC-PRF-5, 72 h, PLC-PRF-5 (Liver)
[16] = Homo sapiens, RPMI-8226, 72 h, RPMI-8226 (Multiple myeloma)
[17] = Homo sapiens, SK-HEP1, 72 h, SK-HEP-1 (Liver)
[18] = Homo sapiens, SNU-182, 72 h, SNU-182 (Liver)
[19] = Homo sapiens, SNU-387, 72 h, SNU-387 (Liver)
[20] = Homo sapiens, SNU-398, 72 h, SNU-398 (Liver)
[21] = Homo sapiens, SNU-423, 72 h, SNU-423 (Liver)
[22] = Homo sapiens, SNU-449, 72 h, SNU-449 (Liver)
[23] = Homo sapiens, SNU-475, 72 h, SNU-475 (Liver)
[24] = Homo sapiens, SW48, 72 h, SW48 (Colon)
[25] = Homo sapiens, SW900, 72 h, SW900 (Lung)
[26] = Homo sapiens, SW1417, 72 h, SW1417 (Colon)
[27] = Homo sapiens, SW-620, 72 h, SW620 (Colon)
[28] = Mel202, 72 h, MEL-202 (Melanoma)

## C[C@]1(C(N)=O)CC[C@@H](n2c(Nc3c(Cl)cc(Cl)cc3Cl)nc3cnc(N[C@@H]4CCOC[C@H]4F)nc32)CC1 [Compound 1, cis-4-[2-{[(3S,4R)-3-fluorooxan-4-yl]amino}-8-(2,4,6-trichloroanilino)-9H-purin-9-yl]-1-methylcyclohexane-1-carboxamide]
Homo sapiens, MDA-MB-231, 72 h, MDA-MB-231 (Breast)
  IC50: 3330 nM
Homo sapiens, MIA PaCa-2, 72 h, MiaPaCa-2 (Pancreas)
  GI50: 47 nM
[1]
  GI50: 1.1 nM
  IC50: 3.8 nM
[2]
  GI50: 36.4 nM
  IC50: 182 nM
[3]
  GI50: 1280 nM
  IC50: 2360 nM
[4]
  GI50: 1630 nM
  IC50: 6150 nM
[5]
  GI50: 184 nM
  IC50: 6350 nM
[6]
  GI50: 244 nM
  IC50: 644 nM
[7]
  GI50: 5240 nM
  IC50: 8370 nM
[8]
  GI50: 567 nM
  IC50: 9180 nM
[9]
  GI50: 234 nM
  IC50: 498 nM
[10]
  GI50: 1350 nM
  IC50: 1680 nM
[11]
  GI50: 40.4 nM
  IC50: 58.4 nM
[12]
  GI50: 2050 nM
  IC50: 3190 nM
[13]
  GI50: 31.8 nM
  IC50: 42.7 nM
[14]
  GI50: 5440 nM
  IC50: 10000 nM
[15]
  GI50: 888 nM
  IC50: 4010 nM
[16]
  GI50: 3240 nM
  IC50: 9740 nM
[17]
  GI50: 7040 nM
  IC50: 10000 nM
[18]
  GI50: 76.4 nM
  IC50: 4980 nM
[19]
  GI50: 33.2 nM
  IC50: 104 nM
[20]
  GI50: 265 nM
  IC50: 1970 nM
[21]
  GI50: 6240 nM
  IC50: 10000 nM
[22]
  GI50: 10000 nM
  IC50: 10000 nM
[23]
  GI50: 9990 nM
  IC50: 10000 nM
[24]
  GI50: 5.7 nM
  IC50: 88 nM
[25]
  GI50: 4.8 nM
  IC50: 21.7 nM
[26]
  GI50: 0.5 nM
  IC50: 16.9 nM
[27]
  GI50: 47 nM
  IC50: 92 nM
JHH1, 72 h, JHH-1 (Liver)
  GI50: 1.6 nM
  IC50: 94.6 nM
JHH7, 72 h, JHH-7 (Liver)
  GI50: 83.4 nM
  IC50: 548 nM
JHH-2, 72 h, JHH-2 (Liver)
  GI50: 129 nM
  IC50: 4480 nM
JHH-4, 72 h, JHH-4 (Liver)
  GI50: 363 nM
  IC50: 2320 nM
[28]
  GI50: 38.5 nM
  IC50: 96.8 nM

— patent US10513519B2, “Solid forms of (1S,4S)-4-(2-(((3S,4R)-3-fluorotetrahydro-2H-pyran-4-yl)amino)-8-((2,4,6-trichlorophenyl)amino)-9H-purin-9-yl)-1-methylcyclohexane-1-carboxamide and methods of their use” (Signal Pharmaceuticals, LLC, priority 2016, dated 2019)
